This is an account of results in publication PMC4467398, “Preclinical antitumor activity of ST7612AA1: a new oral thiol-based histone deacetylase (HDAC) inhibitor” (Oncotarget, 2014).

“And” between values parts separate entries of the source, which are not always exact repeats. Equal entries are not always repeated. Where two headings read alike, the source gives them in different places.

Data set [1] concerns acetylation of histone H4 in NCI-H460 NSCLC cells. In words: Western blot with densitometry, histone H4 acetylation. To be noted: 5 µM; NCI-H460; vehicle 0,0274. The format is cell-based, human. How it is done:
(§1) For assessing the in vitro effect of ST7612AA1 on acetylation of α-tubulin and histones, NSCLC cells were treated with the test compound at various concentrations (dose-response curve). SAHA 5 μM was used as reference inhibitor. Protein extraction, separation and immunoblotting were performed as previously described. Immunoreactive bands were finally subjected to densitometry analysis by a phosphoimaging system (STORM, Molecular Dynamics), and then the IC50 values were calculated by the “ALLFIT” computer program. The antibodies used are listed in Supplementary Table 2.

The test system of data set [2] is acetylation of alpha-tubulin in NCI-H460 NSCLC cells. Nature of the data set: Western blot with densitometry, tubulin acetylation. As to conditions: 5 µM; NCI-H460; vehicle 0,341. The data set is classed as cell-based, human. Here is the method:
as §1
For orientation: A western blot detects proteins with antibodies after separation by electrophoresis.

Another data set deals with HDAC11. Set-up: method as in PMID 25233084. To be noted: mean of IC50 on HDAC1, 10 and 11; cited from earlier work.
Another data set concerns HDAC3. Also on record: method as in PMID 25233084. To be noted: mean of IC50 on HDAC3 and 6; cited from earlier work.
Data set [3] in a line: PK sampling and analysis after a single oral dose of ST7612AA1 (plasma, LC-MS/MS). The data set is classed as in vivo, CD1 mice. To be noted: ST7464AA1 in plasma, single oral dose of 120 mg/kg of ST7612AA1. Here is the method:
CD1 nude mice were used. Male mice were treated with a single dose of ST7612AA1 at 120 mg/10 mL/kg p.o., using 5% Solutol HS 15 in water for injection as vehicle. Blood samples were collected at 0.25, 0.5, 1, 2, 4 and 6 h post treatment from 5 animals per time point. Levels of ST7612AA1 and ST7464AA1 were determined in plasma by quantitative LC-MS/MS having a limit of quantification of 25 ng/mL. The PK parameters Cmax (maximum plasma concentration), Tmax (time of maximum plasma concentration), Clast (last quantifiable concentration), Tlast (time of last quantifiable plasma concentration), AUClast (area under the concentration vs time curve from 0 to Tlast), AUCINF (area under the concentration vs time curve from 0 to infinity), T1/2 (terminal half-life), CL/F (apparent systemic clearance) and Vz/F (apparent terminal volume of distribution) were derived from the analyte plasma concentration vs time data according to a model independent approach for sparse data sampling by using Phoenix WinNonlin® ver. 6.3 software (Pharsight, Cetara).

On the set-up of data set [4]: method as in PMID 25233084. To be noted: mean of IC50 on HDAC1, 10 and 11; cited from earlier work.
Another data set relates to HDAC8. Also on record: method as in PMID 25233084. As to conditions: cited from earlier work.
The next data set concerns HDAC6. Also on record: method as in PMID 25233084. To be noted: cited from earlier work.
For the next data set, the system named is HDAC2. Also on record: method as in PMID 25233084. To be noted: cited from earlier work.
In the next data set the test system is HDAC1. Also on record: method as in PMID 25233084. As to conditions: cited from earlier work.
Setting [5] is: male, CD1 nude, mouse, mean ± SEM.

For the compound `O=C(CCCCCCC(=O)Nc1ccccc1)NO` [SAHA, suberoylanilide hydroxamic acid, reference compound], the “Acetyl H4/H4” value in data set [1] was 0,1537. The Acetyl tub./tubulin in data set [2] is recorded as 2,617.

As to `O=C1CC[C@H](C(=O)N[C@@H](CCCCCS)C(=O)Nc2ccccc2)N1` [ST7464AA1], the IC50 (commonly the concentration needed to halve the response being measured) in the data set with HDAC11 is 13 nM; in the data set with HDAC3 it was 4 nM; in [4], 13 nM; with HDAC8, 281 nM; in the data set on HDAC6 (HDAC6) it was 3.18 nM; in the data set with HDAC6 (mean of IC50 on HDAC3 and 6), 4 nM. Besides, the IC50 was 77.7 nM and 78 nM in the data set with HDAC2; 12.7 nM in the data set on HDAC1 (HDAC1); 13 nM with HDAC1 (mean of IC50 on HDAC1, 10 and 11). In data set [3], this compound gave a Tlast of 6.0 h. In addition, the AUC(0-inf) (usually the area under the concentration-time curve extrapolated to infinity) in [3] (male, CD1 nude, mouse) came to 5510 ng·h/mL. Besides, the CL/F (usually the apparent clearance, not corrected for the fraction that reaches the circulation) in [3] (male, CD1 nude, mouse) is 363 mL/min/kg. The Tmax (commonly the time from dosing to the highest level) in data set [3] (male, CD1 nude, mouse) amounted to 0.5 h. Besides, the half-life (commonly the time in which the quantity being followed falls by half) in data set [3] (male, CD1 nude, mouse) is 3.8 h. In addition, the AUC(0-t) (as a rule, exposure summed from dosing to a finite time, without extrapolation to infinity) in [3] (setting [5]) is 3750 ± 299 ng·h/mL. For the same compound, the Cmax (commonly the maximum level reached in the sampled fluid or tissue) in [3] (setting [5]) amounted to 1580 ± 478 ng/mL. Also, the concentration at 6 h in data set [3] (male, CD1 nude, mouse, read-out: Clast) was 303 ng/mL. Further, in data set [3] (male, CD1 nude, mouse, read-out: Vz/F), the Vd/F came out at 119 L/kg.
